Test results published in ChEMBL document CHEMBL4507261, “Data for DCP probe A-192621” (2021).

Columns and labels:
[1] = target: Type-1 angiotensin II receptor (Homo sapiens) (UniProt P30556); test: AT1 (h) Eurofins-Cerep binding assay; parameters: ligand concentration 0.05 nM; conditions: filed as antagonist, Compound concentration 10.0 uM
[2] = target: Vasopressin V1a receptor (Homo sapiens) (UniProt P37288); test: V1 a (h) Eurofins-Cerep binding assay; parameters: ligand concentration 0.3 nM; conditions: filed as agonist, Compound concentration 10.0 uM
[3] = target: Tyrosine-protein kinase JAK2 (Homo sapiens) (UniProt O60674); conditions: Compound concentration 1000.0 nM
[4] = test system: Receptor-type tyrosine-protein kinase FLT3 (Homo sapiens), P36888 [K663Q]; conditions: Compound concentration 1000.0 nM
[5] = test system: Tyrosine-protein kinase ABL1 (Homo sapiens), P00519 [Q252H]; conditions: Compound concentration 1000.0 nM
[6] = test system: Epidermal growth factor receptor (Homo sapiens), P00533 [UNDEFINED MUTATION]; conditions: Compound concentration 1000.0 nM
[7] = target: Dual specificity protein kinase CLK3 (Homo sapiens) (UniProt P49761); conditions: Compound concentration 1000.0 nM
[8] = target: Cyclin-dependent kinase 11B (Homo sapiens) (UniProt P21127); conditions: Compound concentration 1000.0 nM
[9] = target: Mitogen-activated protein kinase kinase kinase 9 (Homo sapiens) (UniProt P80192); conditions: Compound concentration 1000.0 nM
[10] = target: Ephrin type-B receptor 6 (Homo sapiens) (UniProt O15197); conditions: Compound concentration 1000.0 nM
[11] = target: T1, Alpha-2B adrenergic receptor (Homo sapiens) (UniProt P18089); test: Alpha2B (h) Eurofins-Cerep binding assay; parameters: ligand concentration 2.5 nM; conditions: filed as antagonist, Compound concentration 10.0 uM
T1 sequence (whole entry): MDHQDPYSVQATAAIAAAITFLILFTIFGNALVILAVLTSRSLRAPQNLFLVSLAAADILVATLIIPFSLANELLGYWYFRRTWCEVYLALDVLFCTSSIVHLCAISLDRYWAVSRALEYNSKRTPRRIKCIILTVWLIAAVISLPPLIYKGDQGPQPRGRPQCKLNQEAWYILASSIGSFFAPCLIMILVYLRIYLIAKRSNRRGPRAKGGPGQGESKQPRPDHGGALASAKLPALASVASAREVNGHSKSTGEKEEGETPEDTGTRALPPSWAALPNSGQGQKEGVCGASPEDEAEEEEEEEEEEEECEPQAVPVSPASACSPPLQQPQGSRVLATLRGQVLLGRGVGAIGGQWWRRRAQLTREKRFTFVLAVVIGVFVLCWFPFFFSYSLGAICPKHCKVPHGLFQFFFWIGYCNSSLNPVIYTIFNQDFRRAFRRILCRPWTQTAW

[12] = target: Ribosomal protein S6 kinase alpha-2 (Homo sapiens) (UniProt Q15349); conditions: Compound concentration 1000.0 nM
[13] = target: Interleukin-1 receptor-associated kinase 3 (Homo sapiens) (UniProt Q9Y616); conditions: Compound concentration 1000.0 nM
[14] = target: Muscarinic acetylcholine receptor M3 (Homo sapiens) (UniProt P20309); test: M3 (h) Eurofins-Cerep binding assay; parameters: ligand concentration 0.2 nM; conditions: filed as antagonist, Compound concentration 10.0 uM
[15] = target: Activin receptor type-1 (Homo sapiens) (UniProt Q04771); conditions: Compound concentration 1000.0 nM
[16] = target: Serine/threonine-protein kinase MARK2 (Homo sapiens) (UniProt Q7KZI7); conditions: Compound concentration 1000.0 nM
[17] = target: Serine/threonine-protein kinase PAK 6 (Homo sapiens) (UniProt Q9NQU5); conditions: Compound concentration 1000.0 nM
[18] = target: Calcium/calmodulin-dependent protein kinase type 1G (Homo sapiens) (UniProt Q96NX5); conditions: Compound concentration 1000.0 nM
[19] = target: Serine/threonine-protein kinase PAK 2 (Homo sapiens) (UniProt Q13177); conditions: Compound concentration 1000.0 nM
[20] = target: Dual specificity tyrosine-phosphorylation-regulated kinase 1A (Homo sapiens) (UniProt Q13627); conditions: Compound concentration 1000.0 nM
[21] = target: Leucine-rich repeat serine/threonine-protein kinase 2 (Homo sapiens) (UniProt Q5S007); conditions: Compound concentration 1000.0 nM
[22] = target: Atypical kinase COQ8A, mitochondrial (Homo sapiens) (UniProt Q8NI60); conditions: Compound concentration 1000.0 nM
[23] = target: BDNF/NT-3 growth factors receptor (Homo sapiens) (UniProt Q16620); conditions: Compound concentration 1000.0 nM
[24] = target: Ephrin type-B receptor 4 (Homo sapiens) (UniProt P54760); conditions: Compound concentration 1000.0 nM
[25] = target: Casein kinase I isoform gamma-3 (Homo sapiens) (UniProt Q9Y6M4); conditions: Compound concentration 1000.0 nM
[26] = target: Tyrosine-protein kinase SYK (Homo sapiens) (UniProt P43405); conditions: Compound concentration 1000.0 nM
[27] = target: Receptor-interacting serine/threonine-protein kinase 1 (Homo sapiens) (UniProt Q13546); conditions: Compound concentration 1000.0 nM
[28] = test system: Proto-oncogene tyrosine-protein kinase receptor Ret (Homo sapiens), P07949 [M918T]; conditions: Compound concentration 1000.0 nM
[29] = target: Interleukin-1 receptor-associated kinase 4 (Homo sapiens) (UniProt Q9NWZ3); conditions: Compound concentration 1000.0 nM
[30] = target: Myosin light chain kinase family member 4 (Homo sapiens) (UniProt Q86YV6); conditions: Compound concentration 1000.0 nM
[31] = target: Receptor tyrosine-protein kinase erbB-4 (Homo sapiens) (UniProt Q15303); conditions: Compound concentration 1000.0 nM
[32] = target: LIM domain kinase 2 (Homo sapiens) (UniProt P53671); conditions: Compound concentration 1000.0 nM
[33] = target: Serine/threonine-protein kinase Nek6 (Homo sapiens) (UniProt Q9HC98); conditions: Compound concentration 1000.0 nM
[34] = target: Mitogen-activated protein kinase 14 (Homo sapiens) (UniProt Q16539); conditions: Compound concentration 1000.0 nM
[35] = target: cAMP-dependent protein kinase catalytic subunit alpha (Homo sapiens) (UniProt P17612); conditions: Compound concentration 1000.0 nM
[36] = target: Casein kinase I isoform alpha-like (Homo sapiens) (UniProt Q8N752); conditions: Compound concentration 1000.0 nM
[37] = target: Ribosomal protein S6 kinase alpha-1 (Homo sapiens) (UniProt Q15418); conditions: Compound concentration 1000.0 nM
[38] = target: Histamine H2 receptor (Homo sapiens) (UniProt P25021); test: H2 (h) Eurofins-Cerep binding assay; parameters: ligand concentration 0.075 nM; conditions: filed as antagonist, Compound concentration 10.0 uM
[39] = target: Mast/stem cell growth factor receptor Kit (Homo sapiens) (UniProt P10721); conditions: Compound concentration 1000.0 nM

Epidermal growth factor receptor (Homo sapiens), P00533 [UNDEFINED MUTATION], sequence (P00533 whole entry, looked up, change not shown): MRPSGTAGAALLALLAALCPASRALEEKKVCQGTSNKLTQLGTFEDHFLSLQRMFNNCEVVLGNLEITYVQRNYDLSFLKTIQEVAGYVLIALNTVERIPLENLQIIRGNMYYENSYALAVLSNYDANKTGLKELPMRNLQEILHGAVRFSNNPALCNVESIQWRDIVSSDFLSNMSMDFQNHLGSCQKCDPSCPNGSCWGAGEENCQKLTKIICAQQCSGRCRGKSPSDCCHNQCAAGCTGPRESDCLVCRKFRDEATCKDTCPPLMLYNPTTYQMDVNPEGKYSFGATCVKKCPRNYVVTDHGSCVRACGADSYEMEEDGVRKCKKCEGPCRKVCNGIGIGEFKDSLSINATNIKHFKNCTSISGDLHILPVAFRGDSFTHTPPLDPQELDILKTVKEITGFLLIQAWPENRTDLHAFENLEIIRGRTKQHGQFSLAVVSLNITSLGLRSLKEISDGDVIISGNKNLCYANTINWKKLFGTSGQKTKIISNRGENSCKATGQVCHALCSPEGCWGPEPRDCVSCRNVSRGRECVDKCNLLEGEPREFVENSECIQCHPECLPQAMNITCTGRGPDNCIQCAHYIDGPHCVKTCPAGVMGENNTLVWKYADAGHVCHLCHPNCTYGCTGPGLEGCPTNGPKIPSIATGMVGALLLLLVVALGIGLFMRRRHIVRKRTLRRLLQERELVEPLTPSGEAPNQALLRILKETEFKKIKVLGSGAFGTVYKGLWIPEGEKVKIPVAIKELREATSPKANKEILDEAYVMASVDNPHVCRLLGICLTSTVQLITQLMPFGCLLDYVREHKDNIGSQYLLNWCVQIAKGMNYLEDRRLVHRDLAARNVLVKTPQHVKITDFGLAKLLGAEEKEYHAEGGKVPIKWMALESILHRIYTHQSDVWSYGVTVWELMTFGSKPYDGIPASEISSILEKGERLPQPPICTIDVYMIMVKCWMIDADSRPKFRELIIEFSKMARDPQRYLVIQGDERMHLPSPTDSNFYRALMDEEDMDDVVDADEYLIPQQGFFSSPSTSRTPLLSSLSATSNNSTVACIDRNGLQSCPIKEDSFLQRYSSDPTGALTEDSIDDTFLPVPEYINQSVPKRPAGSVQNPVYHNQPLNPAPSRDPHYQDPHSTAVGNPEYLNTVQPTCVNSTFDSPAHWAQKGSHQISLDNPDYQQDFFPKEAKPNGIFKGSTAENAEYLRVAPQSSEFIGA
Ephrin type-B receptor 4 (Homo sapiens), sequence (P54760 whole entry, canonical isoform): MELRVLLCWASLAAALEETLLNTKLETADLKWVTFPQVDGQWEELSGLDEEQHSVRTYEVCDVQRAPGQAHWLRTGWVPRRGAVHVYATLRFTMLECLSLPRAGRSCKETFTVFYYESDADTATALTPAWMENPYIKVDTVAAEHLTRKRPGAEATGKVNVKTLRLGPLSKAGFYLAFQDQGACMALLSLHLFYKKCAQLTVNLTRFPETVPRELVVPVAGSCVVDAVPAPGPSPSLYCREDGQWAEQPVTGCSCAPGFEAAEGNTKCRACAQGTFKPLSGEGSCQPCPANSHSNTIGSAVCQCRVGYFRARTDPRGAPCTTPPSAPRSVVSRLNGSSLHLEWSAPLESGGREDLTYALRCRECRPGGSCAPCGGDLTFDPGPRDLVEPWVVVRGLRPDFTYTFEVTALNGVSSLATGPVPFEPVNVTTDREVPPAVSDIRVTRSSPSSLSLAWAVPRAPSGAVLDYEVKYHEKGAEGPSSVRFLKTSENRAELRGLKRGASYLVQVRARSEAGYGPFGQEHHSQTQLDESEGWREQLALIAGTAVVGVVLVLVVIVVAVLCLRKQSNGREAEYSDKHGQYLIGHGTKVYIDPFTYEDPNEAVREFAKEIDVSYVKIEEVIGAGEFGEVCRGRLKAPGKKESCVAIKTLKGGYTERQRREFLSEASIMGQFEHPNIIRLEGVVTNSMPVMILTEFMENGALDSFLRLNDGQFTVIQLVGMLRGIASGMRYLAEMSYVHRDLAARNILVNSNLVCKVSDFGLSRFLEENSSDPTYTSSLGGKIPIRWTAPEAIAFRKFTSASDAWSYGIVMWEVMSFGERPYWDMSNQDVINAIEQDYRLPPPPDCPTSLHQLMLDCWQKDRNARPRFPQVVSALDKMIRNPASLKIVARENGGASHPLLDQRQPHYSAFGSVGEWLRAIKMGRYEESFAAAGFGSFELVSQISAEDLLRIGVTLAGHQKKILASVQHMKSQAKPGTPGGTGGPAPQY
Ribosomal protein S6 kinase alpha-2 (Homo sapiens), sequence (Q15349 whole entry): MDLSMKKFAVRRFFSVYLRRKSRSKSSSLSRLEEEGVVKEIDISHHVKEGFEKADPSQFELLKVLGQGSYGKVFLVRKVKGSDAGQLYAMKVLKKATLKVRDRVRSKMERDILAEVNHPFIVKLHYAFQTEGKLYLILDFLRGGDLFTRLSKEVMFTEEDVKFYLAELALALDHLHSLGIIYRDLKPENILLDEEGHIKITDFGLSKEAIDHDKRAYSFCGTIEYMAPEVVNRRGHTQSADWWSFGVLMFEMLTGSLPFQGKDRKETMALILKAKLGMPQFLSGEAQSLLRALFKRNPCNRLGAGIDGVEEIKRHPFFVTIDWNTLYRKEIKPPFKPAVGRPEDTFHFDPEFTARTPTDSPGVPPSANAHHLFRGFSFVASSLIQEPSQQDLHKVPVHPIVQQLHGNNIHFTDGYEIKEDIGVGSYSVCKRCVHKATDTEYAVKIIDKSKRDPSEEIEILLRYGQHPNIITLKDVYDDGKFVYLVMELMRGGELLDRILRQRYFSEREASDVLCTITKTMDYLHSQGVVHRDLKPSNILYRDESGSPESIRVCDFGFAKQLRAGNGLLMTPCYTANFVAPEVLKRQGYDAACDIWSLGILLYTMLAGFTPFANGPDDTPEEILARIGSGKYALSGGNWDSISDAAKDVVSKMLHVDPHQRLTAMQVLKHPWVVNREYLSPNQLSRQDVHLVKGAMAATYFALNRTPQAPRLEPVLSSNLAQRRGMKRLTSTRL
Proto-oncogene tyrosine-protein kinase receptor Ret (Homo sapiens), P07949 [M918T], sequence (P07949 whole entry M918T): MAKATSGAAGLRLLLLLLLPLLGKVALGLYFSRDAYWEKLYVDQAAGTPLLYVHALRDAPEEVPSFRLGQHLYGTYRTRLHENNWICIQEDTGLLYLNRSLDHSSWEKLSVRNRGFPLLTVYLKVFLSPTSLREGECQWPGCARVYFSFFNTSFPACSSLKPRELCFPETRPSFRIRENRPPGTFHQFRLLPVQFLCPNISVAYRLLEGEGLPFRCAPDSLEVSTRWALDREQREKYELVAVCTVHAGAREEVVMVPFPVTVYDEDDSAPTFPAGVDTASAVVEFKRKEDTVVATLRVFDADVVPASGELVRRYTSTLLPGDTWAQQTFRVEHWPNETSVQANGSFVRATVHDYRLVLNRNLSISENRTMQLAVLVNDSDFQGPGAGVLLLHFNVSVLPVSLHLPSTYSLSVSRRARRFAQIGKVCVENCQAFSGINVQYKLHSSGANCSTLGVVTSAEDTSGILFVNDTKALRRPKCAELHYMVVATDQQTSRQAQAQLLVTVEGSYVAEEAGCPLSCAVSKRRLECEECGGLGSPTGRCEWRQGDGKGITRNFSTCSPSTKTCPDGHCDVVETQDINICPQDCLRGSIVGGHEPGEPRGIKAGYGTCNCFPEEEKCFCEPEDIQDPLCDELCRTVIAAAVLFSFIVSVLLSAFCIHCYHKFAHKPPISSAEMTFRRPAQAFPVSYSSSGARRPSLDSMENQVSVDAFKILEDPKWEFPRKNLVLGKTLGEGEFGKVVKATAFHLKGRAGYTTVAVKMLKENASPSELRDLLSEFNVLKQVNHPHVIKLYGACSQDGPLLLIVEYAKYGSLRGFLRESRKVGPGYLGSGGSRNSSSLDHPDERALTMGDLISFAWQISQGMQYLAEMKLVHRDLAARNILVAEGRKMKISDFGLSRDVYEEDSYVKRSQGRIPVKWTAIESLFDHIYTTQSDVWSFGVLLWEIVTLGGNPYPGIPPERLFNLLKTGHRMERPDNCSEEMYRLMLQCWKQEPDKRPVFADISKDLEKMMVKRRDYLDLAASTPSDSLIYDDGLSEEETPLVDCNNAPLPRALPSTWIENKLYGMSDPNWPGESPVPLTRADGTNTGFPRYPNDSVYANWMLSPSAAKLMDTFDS
Myosin light chain kinase family member 4 (Homo sapiens), sequence (Q86YV6 whole entry): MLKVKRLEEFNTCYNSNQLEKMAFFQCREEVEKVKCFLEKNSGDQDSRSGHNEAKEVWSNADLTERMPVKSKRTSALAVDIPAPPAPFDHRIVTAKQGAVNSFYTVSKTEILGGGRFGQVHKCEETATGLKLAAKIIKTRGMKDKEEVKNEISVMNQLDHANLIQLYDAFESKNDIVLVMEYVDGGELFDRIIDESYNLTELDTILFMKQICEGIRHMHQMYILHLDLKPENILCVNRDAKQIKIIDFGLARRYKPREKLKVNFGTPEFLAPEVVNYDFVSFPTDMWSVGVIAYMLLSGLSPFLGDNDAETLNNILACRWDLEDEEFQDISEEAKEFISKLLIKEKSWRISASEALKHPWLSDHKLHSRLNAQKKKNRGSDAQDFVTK
Atypical kinase COQ8A, mitochondrial (Homo sapiens), sequence (Q8NI60 163-647 limits assumed): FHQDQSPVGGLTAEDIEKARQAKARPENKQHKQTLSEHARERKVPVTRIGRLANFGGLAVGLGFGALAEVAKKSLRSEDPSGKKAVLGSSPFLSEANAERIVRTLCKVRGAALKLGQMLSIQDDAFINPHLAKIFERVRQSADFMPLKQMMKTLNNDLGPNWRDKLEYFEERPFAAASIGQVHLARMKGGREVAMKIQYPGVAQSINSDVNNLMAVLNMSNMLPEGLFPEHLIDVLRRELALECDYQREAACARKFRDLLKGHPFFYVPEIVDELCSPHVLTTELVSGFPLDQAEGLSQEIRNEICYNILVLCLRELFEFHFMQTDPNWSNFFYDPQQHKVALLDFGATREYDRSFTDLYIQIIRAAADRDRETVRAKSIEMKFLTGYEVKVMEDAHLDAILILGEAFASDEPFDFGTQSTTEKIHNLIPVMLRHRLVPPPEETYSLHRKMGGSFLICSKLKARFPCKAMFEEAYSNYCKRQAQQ

SMILES | % Inhibition of Control Specific Binding (Mean n=2) [1] | % Inhibition of Control Specific Binding (Mean n=2) [2] | residual activity [3] | residual activity [4] | residual activity [5] | residual activity [6] | residual activity [7] | residual activity [8] | residual activity [9] | residual activity [10] | % Inhibition of Control Specific Binding (Mean n=2) [11] | residual activity [12] | residual activity [13] | % Inhibition of Control Specific Binding (Mean n=2) [14] | residual activity [15] | residual activity [16] | residual activity [17] | residual activity [18] | residual activity [19] | residual activity [20] | further results
CCCOc1ccc([C@H]2[C@H](C(=O)O)[C@@H](c3ccc4c(c3)OCO4)CN2CC(=O)Nc2c(CC)cccc2CC)cc1 [A-192621] | 1.5% | 7.4% | 53% | 100% | 61% | 100% | 97% | 100% | 93% | 65% | 7.4% | 93% | 100% | -11.3% | 100% | 88% | 68% | 90% | 94% | 73% | residual activity [21]: 79%; residual activity [22]: 100%; residual activity [23]: 85%; residual activity [24]: 100%; residual activity [25]: 100%; residual activity [26]: 100%; residual activity [27]: 88%; residual activity [28]: 84%; residual activity [29]: 76%; residual activity [30]: 75%; residual activity [31]: 100%; residual activity [32]: 100%; residual activity [33]: 96%; residual activity [34]: 99%; residual activity [35]: 100%; residual activity [36]: 92%; residual activity [37]: 87%; % Inhibition of Control Specific Binding (Mean n=2) [38]: -35.3%; residual activity [39]: 85%
CCCOc1ccc([C@@H]2[C@@H](C(=O)O)[C@H](c3ccc4c(c3)OCO4)CN2CC(=O)Nc2c(CC)cccc2CC)cc1 [A-1806262] | -3.8% | 15% | 79% | 100% | 92% | 100% | 93% | 94% | 93% | 77% | 1.5% | 100% | 100% | -0.6% | 95% | 92% | 83% | 89% | 100% | 86% | residual activity [21]: 84%; residual activity [22]: 100%; residual activity [23]: 100%; residual activity [24]: 96%; residual activity [25]: 100%; residual activity [26]: 100%; residual activity [27]: 55%; residual activity [28]: 97%; residual activity [29]: 100%; residual activity [30]: 100%; residual activity [31]: 100%; residual activity [32]: 64%; residual activity [33]: 92%; residual activity [34]: 100%; residual activity [35]: 100%; residual activity [36]: 94%; residual activity [37]: 100%; % Inhibition of Control Specific Binding (Mean n=2) [38]: -18.1%; residual activity [39]: 90%
